Assays:
[1] = system: CXCL8(1-77) binding to cellular GAGs on CHO cells; assay: Competition with biotinylated CXCL8 for binding to CHO cells, flow cytometry; assay type: cell-based, Chinese hamster; conditions: mean, n ≥ 4, Figure 3C (300 nM CXCL8)
Method: (§1) Binding of biotinylated CXCL9(74-103) and CXCL9(74-93) to CHO cells was assessed by flow cytometry as recently described ([42]). Briefly, cells were detached with phosphate-buffered saline (PBS) with 0.02% ethylenediaminetetraacetic acid (EDTA) and incubated with NH2-terminally biotinylated peptides. Subsequently, cells were incubated with streptavidin-allophycocyanin (BD Biosciences, San Jose, CA, USA) and analyzed by flow cytometry (FACSCalibur, BD Biosciences). To confirm inhibition of sulfation of cellular GAGs, part of the cells were stained with a mouse monoclonal anti-human HS antibody (Immunosource, Schilde, Belgium) and a secondary phycoerythrin-labeled goat anti-mouse antibody (BD Biosciences). Finally, cells were analyzed by flow cytometry. Analogously, binding of 100 nM biotinylated CXCL8 in the presence or absence of CXCL9(74-103) or CXCL9(74-93) was compared on CHO cells.
Figure 3 CXCL9(74-93) competes with CXCL8 for binding to heparin, heparan sulfate (HS), and cellular glycosaminoglycans (GAGs). Competition between CXCL8 and COOH-terminal CXCL9 or CXCL4 peptides for binding to immobilized heparin (A) or HS (B) and to Chinese hamster ovary (CHO) cells (C) was performed. […] Bound CXCL8 was detected with biotinylated anti-human CXCL8 antibodies. (C) Binding of NH2-terminally biotinylated CXCL8(1-77) (300 nM) to CHO cells in the presence or absence of an excess CXCL9 peptide was detected by streptavidin-allophycocyanin and flow cytometry. The mean (± SEM) percentage inhibition of binding of CXCL8(1-77) to heparin, HS or cellular GAGs is indicated on the y-axis (n ≥ 4). Statistical comparison of the different competitors with CXCL9(74–103) was performed using the Mann–Whitney U-test (*p < 0.05).

[2] = system: CXCL8-induced neutrophil migration; assay: CXCL8-induced neutrophil migration to the peritoneal cavity; assay type: in vivo, mouse (NMRI); conditions: for neutrophils in the peritoneal cavity upon CXCL8 / percentage of neutrophils in the peritoneal cavity upon CXCL8: n ≥ 5; for neutrophils in the peritoneal cavity upon CXCL8: significant
Method: In vivo neutrophil extravasation to the peritoneal or the knee cavity was examined, respectively, by intraperitoneal or intra-articular injection, of endotoxin-free recombinant CXCL8(1-77) (PeproTech) or vehicle (PBS) in female NMRI or C57BL/6 mice, as described previously ([42], [48]). Simultaneously, synthetic CXCL9 peptide was co-injected either intraperitoneally or injected intravenously. After 2 h (peritoneal cavity) or 3 h (knee cavity), mice were sacrificed. The peritoneal cavity was washed with saline enriched with 2% FCS and 20 U/ml heparin and total leukocyte counts were determined. For the preparation of cytospins, 10^5 cells were used and absolute number and percentage of neutrophils in the lavages were determined in duplicate independently by two researchers by differential microscopic counting. The cells present in the tibiofemoral articulation were harvested by washing the cavity with 10 µl of 3% (w/v) bovine serum albumin in PBS and diluted in 90 µl of 3% (w/v) bovine serum albumin in PBS. The number of total leukocytes was determined by counting leukocytes in a Neubauer chamber after staining with Turk’s solution. Differential counts were obtained from cytospin preparations by evaluating the percentage of each leukocyte type on a slide stained with May-Grunwald-Giemsa solution.
Figure 4 The COOH-terminal peptides of CXCL9 inhibit CXCL8-induced neutrophil migration to the peritoneal cavity. CXCL8(1-77) was injected into the peritoneal cavity of NMRI mice (n ≥ 5) simultaneously with an intraperitoneal (A) or intravenous (B,C) injection of CXCL9(74-103) or CXCL9(74–93). The number of neutrophils in the peritoneal cavity, 2 h post injection, were evaluated by differentially counting the leukocyte subtypes on Hemacolor-stained cytospins. The neutrophil counts are shown for every individual mouse, and the horizontal lines denote the median percentage. To detect statistically significant differences, the Mann–Whitney U-test was carried out (*p < 0.05; **p < 0.01; ***p < 0.005).

[3] = system: cellular GAGs on CHO cells; assay: Binding of biotinylated peptides to CHO cells (cellular GAGs), flow cytometry; assay type: cell-based, Chinese hamster; conditions: for binding to CHO cells: NH2-terminally biotinylated peptide, streptavidin-allophycocyanin
Method: Chinese hamster ovary (CHO) cells were a gift from M. Parmentier (ULB, Brussels, Belgium) and were cultured in Ham’s F-12 medium (with L-glutamine; Lonza, Belgium) supplemented with 10% fetal calf serum (FCS) and 0.8% G418 (Geneticin®; Life Technologies), as described ([44]). To inhibit sulfation of cellular GAGs, CHO cells were cultured in the presence of 100 mM sodium chlorate (NaClO3) for 24 h as previously described ([42]).
as §1
Figure 2 CXCL9(74-93) interacts with cellular glycosaminoglycans (GAGs). The interaction of the COOH-terminal CXCL9 peptides with Chinese hamster ovary (CHO) cells was assessed by flow cytometric analysis. (A) CHO cells were treated with dilutions of NH2-terminally biotinylated CXCL9(74-103) and CXCL9(74-93), which were detected by streptavidin-allophycocyanin. (B) To ensure that the binding of CXCL9(74-93) was GAG-mediated, CHO cells were treated with sodium chlorate (NaClO3) to reduce the sulfation of GAGs. Binding of biotinylated CXCL9(74-93) to cells, treated or untreated with NaClO3, was detected by streptavidin-allophycocyanin. The mean (+SEM) fluorescence intensity of bound biotinylated CXCL9 peptides to CHO cells is indicated on the y-axis (n ≥ 4). A statistical comparison to evaluate the binding of biotinylated peptides on CHO cells [compared to the corresponding concentration of CXCL9(74-103) (A) or to the binding to cells not treated with NaClO3 (B)] was performed using the Mann–Whitney U-test (*p < 0.05; **p < 0.01).

| Substance | inhibition of binding of biotinylated CXCL8 to cellular GAGs ([1]; 30-fold excess of peptide) | reduction of CXCL8-induced neutrophil recruitment to peritoneal cavity ([2]; 12 µg peptide i.p., Figure 4A) | reduction of CXCL8-induced neutrophil recruitment to peritoneal cavity ([2]; 36 µg peptide i.p., Figure 4A) | neutrophil influx to peritoneal cavity upon CXCL8 ([2]; 36 µg peptide i.v., not significant, Figure 4B) | neutrophils in the peritoneal cavity upon CXCL8 ([2]; 108 µg peptide i.p. co-injected with 1 µg CXCL8 i.p., NMRI, 2 h, CXCL8 alone about 142 × 10^4, Figure 4A) | percentage of neutrophils in the peritoneal cavity upon CXCL8 ([2]; 108 µg peptide i.p. co-injected with 1 µg CXCL8 i.p., NMRI, 2 h, Figure 4A) | reduction of CXCL8-induced neutrophil migration to peritoneal cavity ([2]; lower doses i.v., Figure 4B) | percentage of neutrophils in the peritoneal cavity upon CXCL8 ([2]; peptide i.v. (highest dose tested, dose not given), CXCL8 i.p., control 16.5%, Figure 4B) | neutrophils in the peritoneal cavity upon CXCL8 ([2]; peptide i.v. (highest dose tested, dose not given), CXCL8 i.p., control 148 × 10^4, Figure 4B) | binding to CHO cells ([3]; n ≥ 4, Figure 2A) | inhibition of binding of biotinylated CXCL8 to cellular GAGs ([1]; 100-fold excess of peptide) | neutrophils in the peritoneal cavity upon CXCL8 ([2]; 66 µg peptide i.v. (equal molar amount to 108 µg CXCL9(74-103)), CXCL8 i.p., control 192 × 10^4, Figure 4C) | percentage of neutrophils in the peritoneal cavity upon CXCL8 ([2]; 66 µg peptide i.v., CXCL8 i.p., control 19%, Figure 4C) | potency against CXCL8 relative to CXCL9(74-103) ([2]; i.v., peritoneal model, Figure 4C) | binding to CHO cells after reduction of GAG sulfation ([3]; CHO cells treated with 100 mM NaClO3 (24 h) vs untreated, biotinylated peptide, Figure 2B) | affinity to cellular GAGs relative to CXCL9(74-103) ([3]; CHO cells, biotinylated peptides, n ≥ 4, Figure 2A) |
| --- | --- | --- | --- | --- | --- | --- | --- | --- | --- | --- | --- | --- | --- | --- | --- | --- |
| 74KKKQKNGKKHQKKKVLKVRKSQRSRQKKTT103 [CXCL9(74-103), COOH-terminal peptide of CXCL9] | 53% | failed to reduce CXCL8-induced neutrophil recruitment | failed to reduce CXCL8-induced neutrophil recruitment | a trend toward a lower neutrophil influx | 45 × 10^4 neutrophils | 6.6% | not able to reduce the neutrophil migration significantly | 10.1% | 81 × 10^4 neutrophils | dose-dependent binding | – | – | – | – | – | – |
| 74KKKQKNGKKHQKKKVLKVRK93 [CXCL9(74-93), COOH-terminal peptide of CXCL9 lacking the 10 COOH-terminal amino acids of CXCL9(74-103)] | 31% | – | – | – | – | – | – | – | – | dose-dependent binding | 50% | 65 × 10^4 neutrophils | 8.25% | equally potent inhibitor of CXCL8 than CXCL9(74-103) | significantly reduced | lower affinity to cellular GAGs |

Source: paper PMC5423902, “CXCL9-Derived Peptides Differentially Inhibit Neutrophil Migration In Vivo through Interference with Glycosaminoglycan Interactions” (Frontiers in Immunology, 2017)
